Results taken from PubChem BioAssay AID179 (DTP/NCI, 2004).
Where “and” joins values, the source holds several entries; their conditions need not be identical. Equal entries are not always repeated. Calls of active or inactive are those of the source.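 How the source made its calls: active means compounds giving half or more protection of infected cells from virus-caused growth loss, again on retest; inactive means the rest.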 Where a SMILES comes first, the peptide text is derived from it.

Test system: CEM cells HIV-1 protection, formazan growth assay
Experiment: NCI AIDS Antiviral Assay
Conditions: for IC50: measured here: growth of uninfected CEM cells
Procedure, shortened: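 Human CEM cells, uninfected and HIV-1-infected, received five drug concentrations, and growth was read by soluble formazan assay. Compounds giving at least 50% protection were retested; reproducible 100% protection defined confirmed active.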

Structure (SMILES)	EC50 [µM]	IC50	outcome
CC(=O)OC(Cc1cc(C=C(C(F)(F)F)C(F)(F)F)cc(C)n1)(C(F)(F)F)C(F)(F)F	> 200	0.955 µM	
c1csc([As](O[As](c2cccs2)c2cccs2)c2cccs2)c1	> 0.2	0.102 µM	
COCCN(C(=O)c1ccccc1)C1CCC2(SCCS2)c2[nH]c3ccccc3c21 (stereo unspecified)	> 200	24 µM	
CC(=O)OCC1OC(NC(=S)Nn2c(-c3ccccc3)nc3ccccc3c2=O)C(OC(C)=O)C(OC(C)=O)C1OC(C)=O (stereo unspecified)	> 200	> 100 µM	
COC(=O)C(=O)C(C(=O)C(=O)Nc1cccc(C(C)=O)c1)c1nc2ccccc2[nH]c1=O (stereo unspecified)	> 575	302 µM	
CC(=O)N(CCCCNC(=O)C(F)(F)F)CCCNC(=O)C(F)(F)F	> 200	> 200 µM	
N#Cc1ccc(Oc2nc3ccccc3nc2C(=O)O)cc1	> 200	> 200 µM	
CCn1c(=S)[nH]c2sc3c(c2c1=O)CCCCC3	> 107	21.9 µM	
S=C1CC(N2CCCC2)=Nc2ccccc2N1	> 200	> 200 µM	
CCC(C)C(NC(=O)C(CCCN=C(N)N)NC(=O)C(CC(=O)O)NC(=O)C(Cc1cnc[nH]1)NC(=O)C(N)CC(C)C)C(=O)NC(C(=O)NC(CC(C)C)C(=O)NC(C(=O)NC(Cc1cnc[nH]1)C(=O)O)C(C)O)C(C)CC (stereo unspecified) (H-LHDRIILTH-OH; configuration not given here)	> 44.7	> 44.7 µM	
CC1(C)CC(=O)C(CCC(=O)/C=C/c2ccccc2)C(=O)C1	> 87.1	> 87.1 µM	
O=C1c2cccc3c([N+](=O)[O-])ccc(c23)C(=O)N1NCCO			inactive
Cc1ccc2c(c1-c1ccccc1)C(=O)OC2			inactive
CN(C)CCN1CCC(Cc2ccccc2)CC1	> 200	72.4 µM	
Cc1cc(Cl)cc(S)c1S(=O)(=O)Nc1nnc2c3ccccc3cnn12	77.6	> 200 µM	
Nc1ccc[nH]c1=O	> 234	> 234 µM	
CC1(C)N/C(=C\[N+](=O)[O-])C(C)(C)N1O	> 200	> 200 µM	
Clc1ccc(-c2c(C3=NCCN3)nnn2-c2ccc(Cl)cc2)cc1	> 138	115 µM	
Cc1cc(C)n(C(=C(C(Cl)=C(Cl)Cl)[N+](=O)[O-])n2nc(C)cc2C)n1	> 200	4.37 µM	
COc1ccc(/C=C2\C=C3OCOC3=CC2=O)cc1	> 10.7	> 10.7 µM	
CCOC(=O)C(/C=N\C(=S)Nc1c(CC)cccc1C(C)(C)C)=C(/O)c1ccccc1	> 200	> 200 µM	

Structure (SMILES)	EC50 [µM]	IC50	outcome
O=c1c2cn[nH]c2nc2scc(-c3ccc(Cl)cc3)n12	> 200	> 200 µM	
[Cl][Bi]([Cl])([c]1ccccc1)([c]1ccccc1)[c]1ccccc1	> 19.5	3.39 µM	
C/C(=C1/N=C(c2cc([N+](=O)[O-])ccc2Cl)N(C2=CC=C(Cl)CC2)C1=O)c1cc2ccccc2oc1=O	> 19.1	> 19.1 µM	
O=C(O)c1cc(C(=O)Nc2ccc(C3=NCCN3)cc2)c(C(=O)O)cc1C(=O)Nc1ccc(C2=NCCN2)cc1	> 200	> 200 µM	
COC1C2C=CC(C2)[C@H]1[N+](=O)[O-] (stereo partly specified)			inactive
Cc1cc(C)c(C(=O)/C=C/c2ccccc2)c(C)c1	> 28.8	> 28.8 µM	
CC1(C)C(=NNC(=O)C[N+](C)(C)C)C(C)(C)C1=NNC(=O)C[N+](C)(C)C	> 28.8	> 28.8 µM	
Oc1cc(O)c2c(c1)O[C@H](c1cc(O)c(O)c(O)c1)[C@@H](O)C2	> 200	0.603 µM	
N=C(N)SCc1ccc2nsnc2c1	> 309	52.5 µM	
O=C(Nc1ccccc1)O/N=C1/CCCC/C1=C\c1ccccc1	> 42.7	39.8 µM	
O=C1C=C(N2CCCC2)c2cc(N3CCCC3)ncc2C1=O			inactive
c1ccc(N=c2snc3scc(-c4ccccc4)n23)cc1	> 23.4	> 23.4 µM	
NC(=O)C(=O)Cc1nc2ccccc2s1	> 91.2	> 91.2 µM	
Cc1ccc(S(=O)(=O)OCC2COC(C)(C)O2)cc1 (stereo unspecified)	> 871	> 871 µM	
S=C(S)N1CCN(c2ccc(Cl)c(Cl)c2)CC1	> 200	26.9 µM	
CCCC[C@H]1CCN2C[C@@H](O)[C@@H](O)[C@H]2[C@@H]1O	> 200	> 200 µM	
CC1CC/C(=C\c2ccc(F)cc2)C2=C1C(c1ccc(F)cc1)n1c(s/c(=C\c3ccc(Cl)cc3)c1=O)=N2 (stereo unspecified)			inactive
COC(=O)c1cc(C#N)[nH]c1-c1ccc(Br)s1	> 200	4.37 µM	
CC1(O)OC(=O)C2=C1CCC1C2CCC2(C)C(O)CCC12 (stereo unspecified)	> 200	> 200 µM	
COc1ccc(-n2c(SCC(=O)NC(=O)Nc3ccccc3)nc3c(Br)cc(Br)cc3c2=O)cc1	> 200	> 200 µM	
CC1=N[C@](C)(C2CC3C=CC2C3=O)COC1=O (stereo partly specified)	> 562	> 562 µM	

Structure (SMILES)	EC50 [µM]	IC50	outcome
CN1C(=O)C(N=Nc2ccc([N+](=O)[O-])cc2)SC1=S (stereo unspecified)	> 100	10.7 µM and > 12.6 µM	
O=C1Cc2cc3ccccc3nc2-c2ccccc2N1	> 200	> 200 µM	
CN(C)CCNC(=O)Cn1ccc(=O)c2cc([N+](=O)[O-])ccc21	> 200	> 200 µM	
CN(C)CCC(=O)c1ccc(Cl)cc1	> 107	27.5 µM	
Cc1nc(-n2nc(-c3ccccc3)cc2-c2ccccc2)sc1C(=O)/C=C/c1ccccc1	> 16.2	8.32 µM	
CC(=O)OC1C(O[C@H]2CC[C@]34O[C@]35CC[C@]3(C)C(C6(C)CC[C@@H](C(C)(C)O)O6)[C@@H](O)CC3(C)[C@@H]5CC(OC3OC(CO)C(O)C(O)C3O)C4C2(C)C)OCC(O)C1O (stereo partly specified)	67.6	302 µM	
CC(C)(C)OC(=O)CN1CCNCCN(CC(=O)OC(C)(C)C)CCNCC1	> 200	13.8 µM	
COc1cc(O)c2c(=O)oc3cc(O)cc(C)c3c2c1	> 34.7	> 34.7 µM	
O=C(O)c1c(Cl)c(Cl)c(Cl)c(Cl)c1-c1c2ccc(=O)cc-2oc2cc(O)ccc12	6.46	29.5 µM	
N#Cc1c(N2CCCC2)ncn(-c2ccccc2)c1=O	> 200	> 200 µM	
C/C(O)=C(/C=N/C(=S)Nc1ccc(S(N)(=O)=O)cc1)C(=O)Nc1ccccc1C	> 200	> 200 µM	
O=C(O)C1SCCS1	> 200	> 200 µM	
Cc1cc(Cl)cc2c1S/C(=C1\Sc3c(C)cc(Cl)cc3C1=O)C2=O	> 200	> 200 µM	
CC1C[C@@H]2OC(=O)C(C)[C@H]2C[C@]2(C)C(O)CC(O)C12 (stereo partly specified)	> 933	47.9 µM	
COc1cc(CC2Cc3cccc(=O)c(O)c3C(=O)O2)cc(OC)c1OC (stereo unspecified)	> 120	17.4 µM	
CC(C)C1=CC2=CCC3C(C)(COC(=O)COc4ccccc4)CCCC3(C)C2CC1 (stereo unspecified)	> 200	46.8 µM	
C(#C[C@@]12CCC[C@@H]1NCO2)c1ccc2c(c1)OCO2	> 200	50.1 µM	
Cn1c(C(=O)c2cc3ccccc3n2C)cc2ccccc21	> 18.2	> 18.2 µM	
CC(=O)N(C(=O)CC(=O)N/N=C\c1ccc(Br)c(N(CCC#N)CCC#N)c1)c1ccc(Cl)cc1	> 200	> 200 µM	
Cc1ccccc1C(=O)N1CCN(C(=O)c2ccccc2C)CC1	> 145	> 145 µM	
CCOC(=O)NP(=O)(NNc1ccccc1)NNc1ccccc1			inactive

Structure (SMILES)	EC50 [µM]	IC50	outcome
N#Cc1cnn2ccn(C3OC(COC(=O)c4ccccc4)C(OC(=O)c4ccccc4)C3OC(=O)c3ccccc3)c12 (stereo unspecified)	> 200	> 200 µM	
Cc1ccc(Cc2n[nH]c(=O)n2N2C(=O)c3ccccc3C2=O)cc1	> 200	> 200 µM	
COc1ccc(N2C(=O)CC(=O)N(C(=O)COc3ccc(OCC(=O)N4C(=O)CC(=O)N(c5ccc(OC)cc5)C4=S)cc3)C2=S)cc1	> 200	50.1 µM	
C=C(C)C1CCC(C(=O)O)CC1 (stereo unspecified)	> 200	> 200 µM	
Clc1cccc2nn3ccnc3n12	> 955	490 µM	
CC(C)(C)C1=CC(=Nc2ccc([N+](=O)[O-])cc2[N+](=O)[O-])C=C(C(C)(C)C)C1=O	> 13.5	> 13.5 µM	
CCOC(=O)c1c(-c2ccccc2)nc2c(OC)nccn12	> 200	126 µM	
Cc1nc(-c2nc(C)c(C(=O)/C=C/c3ccc([N+](=O)[O-])cc3)s2)sc1C(=O)/C=C/c1ccc([N+](=O)[O-])cc1	> 47.9	> 47.9 µM	
CN(C)c1ccc(/C=N/Nc2nc3ccccc3c(=O)n2-c2ccccc2)cc1	> 100	> 100 µM	
O=C1c2ccccc2C(=O)C2C3c4ccccc4C(c4ccccc43)C12 (stereo unspecified)	> 15.5	> 15.5 µM	
COC(=O)C1=CC(=O)C(C(=O)Nc2ccc(OC)cc2)C(c2ccccc2)O1 (stereo unspecified)	> 7.08	> 7.08 µM	
CC(C)=CCC[C@@H](C)C1=C(O)C(Nc2ccccc2F)=C(C)C(=O)C1=O	> 200	15.8 µM	
Cc1cc(N=Nc2ccc(C(=O)Nc3ccc4cc(S(=O)(=O)O)ccc4c3)cc2)c(N)c(N=Nc2ccc(N=Nc3ccc(O)c(C(=O)O)c3)cc2)c1N	14.8	> 100 µM	
CCCCCCCCCC=C(c1cc(Cl)c(OC)c(C(=O)OC)c1)c1cc(Cl)c(OC)c(C(=O)OC)c1	> 23.4	> 23.4 µM	
N#Cc1ccc(C=NC23CC4CC(CC(C4)C2)C3)cc1	> 67.6	> 67.6 µM	
O=C1Oc2ccccc2C(=O)/C1=C/N1C(=O)/C(=C/c2ccccc2)NC1=S	> 200	> 100 µM	
COC(=O)/N=[N+](\[O-])C(c1ccc(Cl)cc1)c1ccc(Cl)cc1	> 200	64.6 µM	
CC(=O)C1=C(O)C2C3c4c[nH]c5cccc(c45)CC3C(C)(C)N2C1=O (stereo unspecified)			inactive
COC(=O)c1ccc(-c2nc(C#N)c(N)o2)cc1	> 200	> 200 µM	
Cc1nc2[nH]c(=S)[nH]c(=O)c2[nH]c1=O	> 200	> 200 µM	
c1ccc(N=C2SC(c3ccccc3)CN2C23CC4CC(CC(C4)C2)C3)cc1 (stereo unspecified)	> 200	> 200 µM	
